Experimental data taken from patent US9533040B2, “Inhibition of human immunodeficiency virus integrase reaching dimer formation utilizing single-chain variable antibodies” (priority 2010, dated 2017).

B1: mAb33: monoclonal antibody specific for the CTD of HIV IN; single chain Fv sequence SEQ ID NO:194 (protein, listed as Mus musculus)
scFv: MKYLLPTAAAGLLLLAAQPAMAMGHHHHHHHHHHSSGHIDDDDKHMDIQMTQSPSSLSASLGGKVTITCKASQDIYKYIAWYQHKPGKGPRLLIHYTSTLQPGIPSRFSGSGSGRDYSFSISNLEPEDIATYYCLQYDNLWTFGGGTKLEIKRADAAPTVSIFPPSSKLGPGGGGSGGGGSGGGGSELGRSEVKLVESGGGLVKPGGSLKLSCAASGFSFSSYAMSWVRQTPEKRLEWVASISSGGNTYYPDSVKGRFTISRDNARNILYLQMSSLRSEDTAMYYCARLDTTVEGDWYFDVWGAGTTLTVSS
B2: mAb17: monoclonal antibody specific for the NTD of HIV IN; single chain Fv sequence SEQ ID NO:195 (protein, listed as Mus musculus)
scFv: MKYLLPTAAAGLLLLAAQPAMAMGHHHHHHHHHHSSGHIDDDDKHMDVWLTQTPLSLPVSLGDQASISCRSSQTFVHSDGNTYLEWYLQKPGQSPKLLIYKISNRFSGVPDRFSGSGSGTDFTLKISGVEAEDLGLYYCFQGSHVPFTFGSGTKLEIRRADAAPTVSIFPPSSKLGPGGGGSGGGGSGGGGSELGRSQVQLQQSGAELVRPGASVTLSCKASGYTFIEYEMHWVKQAPVHGLEWIGAVDPETGGTAYNQKFKGKAILTADKSSSTGYMELRSLTSESSAVYYCARQGLGYWGQGTLVTVSA

Columns and labels:
HIV IN = HIV IN (Human immunodeficiency virus type 1 group M subtype B, UniProt P12497); details: previous studies; cited from earlier work
ASV IN = ASV IN (Rous sarcoma virus subgroup C, UniProt P03354, K1536E/R1446K/V1381A); details: previous studies; cited from earlier work
HIV IN (F181T) dimer = target: T1, HIV IN (F181T) dimer (Human immunodeficiency virus type 1 group M subtype B, UniProt P12497, F1328T); assay: FRET multimerization assay (reaching dimer formation); type: binding; details: each at 1 μM; HIV IN (F181T) at 2 μM; relative to untreated control
T1 construct: made in house
Protocol: The effects of monoclonal antibodies and four small molecule inhibitors (each at 1 μM) are shown.
A multimerization assay based on fluorescence resonance energy transfer (FRET) between donor and acceptor dyes attached to C280 in HIV IN was used. The F181T substitution was introduced in order to monitor reaching dimer formation specifically (see Table 1 and FIGS. 9 and 11). One preparation was labeled with a donor fluorophore (Cy3) and a second with the acceptor (Cy5). Upon mixing (final conc. IN between 0.5 to 2 μM) and equilibration, the FRET efficiency obtained is consistent with the expected apparent distance of 60-65 Å in a reaching dimer. The Z′ factor of 0.7 obtained with this assay is in the “excellent” range for high throughput screening, and additional adjustments (e.g., use of alternative dye pairs, filter changes) may allow us to improve sensitivity even further. To validate the assay, the effects of monoclonal antibodies specific for the CTD (mAb33) or NTD (mAb17) of HIV IN were tested (FIG. 31). […] These preliminary results support the notion that compounds that either stabilize or block reaching dimer formation can result in inhibition of catalysis by IN.

ASV IN, sequence (P03354 1281-1566 V1381A/R1446K/K1536E): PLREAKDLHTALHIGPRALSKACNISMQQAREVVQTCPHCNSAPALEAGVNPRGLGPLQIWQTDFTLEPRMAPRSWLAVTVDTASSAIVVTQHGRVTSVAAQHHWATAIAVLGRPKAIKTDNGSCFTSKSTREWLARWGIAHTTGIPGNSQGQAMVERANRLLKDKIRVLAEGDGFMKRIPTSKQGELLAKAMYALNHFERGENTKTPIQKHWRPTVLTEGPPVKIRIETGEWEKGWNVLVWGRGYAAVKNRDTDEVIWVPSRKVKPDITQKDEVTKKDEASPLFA

Molecule	inhibition of HIV IN (HIV IN)	inhibition of ASV IN (ASV IN)	effect on FRET-monitored IN self-association (reaching dimer formation) (HIV IN (F181T) dimer)
2BrNSA	robust inhibition	robust inhibition	
B1			inhibit FRET-monitored self-association
B2			inhibit FRET-monitored self-association
